Biological target: T1, TRAF6WTStrepII-Ubc13FH interaction (Homo sapiens, UniProt Q9Y4K3)
T1 construct: RING-Zincfinger1 (RZ1) domain (residues 50-159) of human TRAF6 wildtype; made in house; host or cells: E. coli BL21 codon plus RIPL
T1 sequence (Q9Y4K3 with tags, fused parts or gaps): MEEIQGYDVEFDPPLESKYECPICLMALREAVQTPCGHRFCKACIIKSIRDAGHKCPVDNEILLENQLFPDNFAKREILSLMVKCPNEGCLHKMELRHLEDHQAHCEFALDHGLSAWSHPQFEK
Assay: ALPHAScreen TRAF6-Ubc13 interaction assay
Type: binding
Conditions: TRAF6 100 nM, Ubc13FH 75 nM; class symbols; read-out: IC50 Alphascreen (inhibition of TRAF6-UBC13 interaction)
Excerpt: In order to identify small molecules that specifically target the RZ1 domain of TRAF6 and thereby prevent its binding to Ubc13, the ALPHAScreen technology (PerkinElmer) was chosen to detect TRAF6WTStrepII-Ubc13FH interaction in High-Throughput-Screenings as well as Structure Activity Relationship (SAR) analysis.
For performance of an automated ALPHAScreen assay, all following components were pre-diluted in ALPHAScreen buffer (1×PBS, 0.5% BSA, 0.01% Tween-20). First, the TRAF6 protein (end concentration 100 nM, 30 μL volume) was added to 384-well-opti-plates involving the MultiFlo dispensing system (BioTek) followed by transfer of the compounds via the Sciclone G3 transfer station (PerkinElmer). After addition of Ubc13FH (end concentration 75 nM, 10 μL volume) with the MultiFlo system and incubation for one hour at room temperature, both beads (Strep-Tactin Alpha Donor beads and Nickel-Chelate acceptor beads; end concentrations 4 μg each, 10 μL volume each) were mixed and added using the MultiFlo system in subdued light. Read-out of the plates occurred after another hour of incubation at room temperature. Statistical parameters including the coefficient of variation, Z′ factor and signal window were calculated to determine the quality of the HTS campaign. To evaluate the efficacy of the compounds, ALPHAScreen units of compound-treated samples were referred to DMSO control treated samples. Thereby, the TRAF6D57K mutant served as the control for minimum signal and was included on every plate of the screening. Compounds that inhibited TRAF6WTStrepII-Ubc13FH by more than 25% were considered as actives. After elimination of ALPHAScreen frequent hitter compounds and His-tag frequent hitters (Schorpp, K., I. Rothenaigner, E. Salmina, et al., Identification of Small-Molecule Frequent Hitters from AlphaScreen High-Throughput Screens. J Biomol Screen, 2014. 19(5): p. 715-26), 178 compounds were defined as primary hits and were subsequently tested in five-point serial dilution assays (2.5-40 μM) in TRAF6WTStrepII-Ubc13FH ALPHAScreen experiments. Only compounds with dose-dependent effects on TRAF6WTStrepII-Ubc13FH (n=27) were taken for further research. For analog testing, all compounds were analyzed in ten-point titration (0.2-100 μM) in TRAF6WTStrepII-Ubc13FH ALPHAScreen experiments. In parallel, the compounds were tested in the ALPHAScreen TruHits Kit (PerkinElmer) to rule out unspecific interference with the ALPHAScreen technology.

| SMILES | IC50 [µM] | inhibition at 100 µM [%] |
| --- | --- | --- |
| Cc1nn(-c2ccc3nnc(C)n3n2)c(C)c1CCC(=O)N1CCN(Cc2ccccc2C#N)CC1 [Example 127] | ≤ 10 | – |
| Cc1nn(-c2ccc3nnc(C)n3n2)c(C)c1CCC(=O)N1CCN(Cc2cccc(-c3ccccc3)c2)CC1 [Example 128] | ≤ 10 | – |
| Cc1cc(CN2CCN(C(=O)CCc3c(C)nn(-c4ccc5nnc(C)n5n4)c3C)CC2)cc([N+](=O)[O-])c1 [Example 129] | ≤ 3 | – |
| Cc1nn(-c2ccc3nnc(C)n3n2)c(C)c1CCC(=O)N1CCN(Cc2ccc(S(N)(=O)=O)cc2)CC1 [Example 130] | ≤ 3 | – |
| Cc1nn(-c2ccc3nnc(C)n3n2)c(C)c1CCC(=O)N1CCN(Cc2ccc(C(=O)O)c(F)c2)CC1 [Example 131] | ≤ 3 | – |
| Cc1nn(-c2ccc3nnc(C)n3n2)c(C)c1CCC(=O)N1CCN(Cc2ccc(Cl)cc2Cl)CC1 [Example 132] | ≤ 10 | – |
| Cc1cccc(CN2CCN(C(=O)CCc3c(C)nn(-c4ccc5nnc(C)n5n4)c3C)CC2)c1 [Example 133] | ≤ 10 | – |
| Cc1nn(-c2ccc3nnc(C)n3n2)c(C)c1CCC(=O)N1CCN(Cc2cccc(I)c2)CC1 [Example 134] | ≤ 3 | – |
| Cc1nn(-c2ccc3nnc(C)n3n2)c(C)c1CCC(=O)N1CCN(Cc2ccc(Cl)c(Cl)c2)CC1 [Example 135] | ≤ 3 | – |
| Cc1nn(-c2ccc3nnc(C)n3n2)c(C)c1CCC(=O)N1CCN(Cc2ccc(C(F)(F)F)c(F)c2)CC1 [Example 136] | ≤ 10 | – |
| Cc1nn(-c2ccc3nnc(C)n3n2)c(C)c1CCC(=O)N1CCN(Cc2ccc3cn[nH]c3c2)CC1 [Example 137] | ≤ 10 | – |
| Cc1nn(-c2ccc3nnc(C)n3n2)c(C)c1CCC(=O)N1CCN(Cc2cccc3ncccc23)CC1 [Example 138] | ≤ 10 | – |
| Cc1ccc(CN2CCN(C(=O)CCc3c(C)nn(-c4ccc5nnc(C)n5n4)c3C)CC2)cc1 [Example 139] | ≤ 30 | – |
| Cc1nn(-c2ccc3nnc(C)n3n2)c(C)c1CCC(=O)N1CCN(Cc2ccc(F)c(F)c2)CC1 [Example 140] | ≤ 30 | – |
| Cc1nn(-c2ccc3nnc(C)n3n2)c(C)c1CCC(=O)N1CCN(Cc2cccc3ccccc23)CC1 [Example 141] | ≤ 30 | – |
| Cc1nn(-c2ccc3nnc(C)n3n2)c(C)c1CCC(=O)N1CCN(Cc2c(Cl)cccc2Cl)CC1 [Example 142] | ≤ 10 | – |
| Cc1nn(-c2ccc3nnc(C)n3n2)c(C)c1CCC(=O)N1CCN(Cc2ccc(Cl)cc2)CC1 [Example 143] | ≤ 30 | – |
| Cc1nn(-c2ccc3nnc(C)n3n2)c(C)c1CCC(=O)N1CCN(Cc2ccccc2Cl)CC1 [Example 144] | ≤ 10 | – |
| Cc1nn(-c2ccc3nnc(C)n3n2)c(C)c1CCC(=O)N1CCC(CCc2ccccc2)CC1 [Example 145] | ≤ 10 | – |

| SMILES | IC50 [µM] | inhibition at 100 µM [%] |
| --- | --- | --- |
| Cc1nn(-c2ccc3nnc(C)n3n2)c(C)c1CCC(=O)N1CCN(Cc2cc(F)c(O)c(F)c2)CC1 [Example 146] | ≤ 3 | – |
| Cc1nn(-c2ccc3nnc(C)n3n2)c(C)c1CCC(=O)N1CCN(Cc2cccc([N+](=O)[O-])c2)CC1 [Example 149] | ≤ 10 | – |
| Cc1nn(-c2ccc3nnc(C)n3n2)c(C)c1CCC(=O)N1CCN(Cc2ccc3cccnc3c2)CC1 [Example 150] | ≤ 10 | – |
| Cc1nn(-c2ccc3nnc(C)n3n2)c(C)c1CCC(=O)N1CCN(Cc2cccc(C(N)=O)c2)CC1 [Example 151] | ≤ 10 | – |
| Cc1nn(-c2ccc3nnc(C)n3n2)c(C)c1CCC(=O)N1CCN(Cc2cccc3cccnc23)CC1 [Example 153] | ≤ 3 | – |
| Cc1nn(-c2ccc3nnc(C)n3n2)c(C)c1CCC(=O)N1CCN(Cc2cccc(-c3nn[nH]n3)c2)CC1 [Example 154] | ≤ 3 | – |
| Cc1nn(-c2ccc3nnc(C)n3n2)c(C)c1CCC(=O)N1CCN(Cc2cccc(S(C)(=O)=O)c2)CC1 [Example 155] | ≤ 3 | – |
| Cc1nn(-c2ccc3nnc(C)n3n2)c(C)c1CCC(=O)N1CCN(Cc2cccc(NS(C)(=O)=O)c2)CC1 [Example 156] | ≤ 10 | – |
| COc1ccc(CN2CCN(C(=O)CCc3c(C)nn(-c4ccc5nnc(C)n5n4)c3C)CC2)cc1 [Example 157] | ≤ 10 | – |
| Cc1nn(-c2ccc3nnc(C)n3n2)c(C)c1CCC(=O)N1CCN(Cc2cccc(F)c2)CC1 [Example 158] | ≤ 10 | – |
| Cc1nn(-c2ccc3nnc(C)n3n2)c(C)c1CCC(=O)N1CCN(Cc2cccc(C(F)(F)F)c2)CC1 [Example 159] | ≤ 3 | – |
| Cc1ccccc1CN1CCN(C(=O)CCc2c(C)nn(-c3ccc4nnc(C)n4n3)c2C)CC1 [Example 160] | ≤ 3 | – |
| Cc1nn(-c2ccc3nnc(C)n3n2)c(C)c1CCC(=O)N1CCN(Cc2cccc(C3CC3)c2)CC1 [Example 161] | ≤ 3 | – |
| Cc1nn(-c2ccc3nnc(C)n3n2)c(C)c1CCC(=O)N1CCN(Cc2ccc(F)c(C(F)(F)F)c2)CC1 [Example 162] | ≤ 10 | – |
| Cc1nn(-c2ccc3nnc(C)n3n2)c(C)c1CCC(=O)N1CCN(Cc2cccc(Br)c2)CC1 [Example 163] | ≤ 3 | – |
| Cc1nn(-c2ccc3nnc(C)n3n2)c(C)c1CCC(=O)N1CCN(Cc2ccc(-c3nnn[nH]3)cc2)CC1 [Example 164] | ≤ 3 | – |
| Cc1nn(-c2ccc3nnc(C)n3n2)c(C)c1CCC(=O)N1CCN(Cc2ccc3cc[nH]c3c2)CC1 [Example 165] | ≤ 10 | – |
| Cc1nn(-c2ccc3nnc(C)n3n2)c(C)c1CCC(=O)N1CCN(Cc2ccc3oc(=O)ccc3c2)CC1 [Example 166] | ≤ 10 | – |
| Cc1nn(-c2ccc3nnc(C)n3n2)c(C)c1CCC(=O)NC1CCN(c2ccccc2)CC1 [Example 167] | – | ≥ 30 |

| SMILES | IC50 [µM] | inhibition at 100 µM [%] |
| --- | --- | --- |
| Cc1nn(-c2ccc3nnc(C)n3n2)c(C)c1CCC(=O)N1CCC(Oc2ccccc2)CC1 [Example 168] | ≤ 10 | – |
| Cc1nn(-c2ccc3nnc(C)n3n2)c(C)c1CCC(=O)N1CCN(Cc2ccc(-c3nnn[nH]3)cc2F)CC1 [Example 169] | ≤ 10 | – |
| Cc1nn(-c2ccc3nnc(C(F)(F)F)n3n2)c(C)c1CCC(=O)N1CCN(Cc2ccc(-c3nnn[nH]3)cc2F)CC1 [Example 170] | ≤ 3 | – |
| Cc1nn(-c2ccc3nnc(C)n3n2)c(C)c1CCC(=O)N1CCN(Cc2cc(-c3nnn[nH]3)ccc2Cl)CC1 [Example 171] | ≤ 3 | – |
| Cc1nn(-c2ccc3nnc(C(F)(F)F)n3n2)c(C)c1CCC(=O)N1CCN(Cc2cc(-c3nnn[nH]3)ccc2Cl)CC1 [Example 172] | ≤ 3 | – |
| Cc1nn(-c2ccc3nnc(C)n3n2)c(C)c1CCC(=O)N1CCN(Cc2ccc(-c3nnn[nH]3)cc2Cl)CC1 [Example 173] | ≤ 3 | – |
| Cc1nn(-c2ccc3nnc(C(F)(F)F)n3n2)c(C)c1CCC(=O)N1CCN(Cc2ccc(-c3nnn[nH]3)cc2Cl)CC1 [Example 174] | ≤ 3 | – |
| Cc1nn(-c2ccc3nnc(C)n3n2)c(C)c1CCC(=O)N1CCN(Cc2cccc(-c3nnn[nH]3)c2Cl)CC1 [Example 175] | ≤ 3 | – |
| Cc1nn(-c2ccc3nnc(C(F)(F)F)n3n2)c(C)c1CCC(=O)N1CCN(Cc2cccc(-c3nnn[nH]3)c2Cl)CC1 [Example 176] | ≤ 3 | – |
| Cc1nn(-c2ccc3nnc(C)n3n2)c(C)c1CCC(=O)N1CCN(Cc2cc(F)cc(-c3nnn[nH]3)c2)CC1 [Example 177] | ≤ 3 | – |
| Cc1nn(-c2ccc3nnc(C(F)(F)F)n3n2)c(C)c1CCC(=O)N1CCN(Cc2cc(F)cc(-c3nnn[nH]3)c2)CC1 [Example 178] | ≤ 3 | – |
| Cc1nn(-c2ccc3nnc(C)n3n2)c(C)c1CCC(=O)N1CCN(Cc2cccc(-c3nnn[nH]3)c2C)CC1 [Example 179] | ≤ 3 | – |
| Cc1nn(-c2ccc3nnc(C(F)(F)F)n3n2)c(C)c1CCC(=O)N1CCN(Cc2cccc(-c3nnn[nH]3)c2C)CC1 [Example 180] | ≤ 10 | – |
| Cc1nn(-c2ccc3nnc(C(F)(F)F)n3n2)c(C)c1CCC(=O)N1CCN(Cc2cc(F)cc(C#N)c2)CC1 [Example 181] | ≤ 30 | – |
| Cc1nn(-c2ccc3nnc(C)n3n2)c(C)c1CCC(=O)N1CCN(Cc2ccc(C#N)cc2F)CC1 [Example 182] | ≤ 10 | – |
| Cc1nn(-c2ccc3nnc(C(F)(F)F)n3n2)c(C)c1CCC(=O)N1CCN(Cc2cc(C#N)ccc2Cl)CC1 [Example 183] | ≤ 3 | – |
| Cc1nn(-c2ccc3nnc(C)n3n2)c(C)c1CCC(=O)N1CCN(Cc2cccc(C#N)c2Cl)CC1 [Example 184] | ≤ 10 | – |
| Cc1nn(-c2ccc3nnc(C)n3n2)c(C)c1CCC(=O)N1CCN(Cc2cccc(C#N)c2C)CC1 [Example 185] | ≤ 3 | – |
